The values that follow come from patent US8426394B2, “Progesterone antagonists such as CDB-4124 in the treatment of endometriosis, uterine fibroids, dysmenorrhea, breast cancer, etc” (Repros Therapeutics Inc., priority 2008, dated 2013).

Data set [1] is described as follows: Serum corticosterone in rats. The conditions noted are these: progesterone, CDB-4124 and RU-486 groups compared.
In data set [2] the test system is pre-menopausal adult women diagnosed with endometriosis. As to the kind of experiment: Six month study of Proellex (CDB-4124) in the treatment of endometriosis. In kind it is in vivo, human. The procedure: Pain reduction also occurred more rapidly than with the active control, Lucrin®. The response of pain to treatment in this study was analyzed in two ways. Patients in the study maintained daily pain diaries to record the severity and frequency of pain. In addition, at each office visit, patients filled out endometriosis symptom surveys that included a questionnaire that evaluated intensity of pain on a bad day on a scale of 0-10 with 10 being the greatest intensity. […] There appeared to be a dose dependent effect on pain reduction. […] This decrease in duration of pain was statistically better (p=0.0012) than the 117.8 (74%; standard deviation 51.4 days) pain free days achieved with Lucrin®. […] Patients on CDB-4124 12.5 mg and 25 mg doses had 115.9 (66%; standard deviation 69.2 days) and 133.6 (75%; standard deviation 27.4 days) pain free days, respectively. […] The 25 mg and 12.5 mg doses of CDB-4124 were not statistically different from Lucrin®. […] The intensity of pain was assessed by the question: “On a […], with 0 being no pain and 10 being extreme pain, how intense was your pain on a bad day?” The mean scores for intensity of pain at baseline were 6.3 for the CDB-4124 groups and 6.1 for the Lucrin® group. […] At month three all four active treatment groups had statistically significant reduction in pain compared with baseline, with the following scores: 3.7 (p=0.03) for 12.5 mg CDB-4124, 3.2 (p=0.03) for 25 mg CDB-4124, 1.6 (p=0.015) for 50 mg CDB-4124 and 1.5 (p=0.016) for Lucrin®. These dose related reductions continued until month six when the values for pain intensity were 2.0 (p=0.008), 2.8 (p=0.023), 0.6 (p=0.004) and 0.7 (p=0.016), respectively. Two months after stopping treatment pain returned and was of similar intensity in all four treatment groups.

The subject of data set [3] is females suffering from endometriosis. Put plainly: Example 12: 12.5 mg CDB-4124 beginning at day 5 versus day 15 of the menstrual cycle. In kind it is in vivo, human. The note with it: 12.5 mg for a six-month period. The procedure: Females suffering from endometriosis are divided into two groups: a first group receives 12.5 mg of CDB-4124 for a six-month period beginning at day 5 of each female's menstrual cycle; a second group receives 12.5 mg of CDB-4124 for a six-month period beginning at day 15 of each female's menstrual cycle. Endometrial thickness is monitored regularly throughout the six-month period.

The test system of data set [4] is pre-menopausal adult women diagnosed with endometriosis. Put plainly: Six month study of Proellex (CDB-4124) in the treatment of endometriosis. In kind it is in vivo, human. The conditions noted are these: for change in endometrial thickness from baseline (ultrasound): statistically insignificant.
For data set [5], the system named is women with uterine fibroids. Put plainly: Three month study in women with uterine fibroids. In kind it is in vivo, human. The conditions noted are these: 12.5 mg or 25 mg daily for three months, begun at day 5 of cycle. The procedure:
In a separate study, women with uterine fibroids were administered daily doses of 12.5 mg, 25 mg or 50 mg CDB-4124 for a three month period, beginning at day 5 of each woman's menstrual cycle.

The test system of data set [6] is endometrium. Put plainly: Endometrial biopsies of women in the CDB-4124 treatment groups. In kind it is in vivo, human. The procedure:
Endometrial biopsies were taken from 27 women exposed to 12.5 mg, 25 mg or 50 mg CDB-4124 for six months and 31 women with uterine fibroids exposed to 12.5 or 25 mg CDB-4124 for three months. Specimens were evaluated in a treatment blinded fashion utilizing the WHO diagnostic schema (Silverberg et al., tumors of the uterine corpus: epithelial tumors and related lesions. Tavassoli F A, Stratton M R, reditors. WHO Classification of Tumors: Pathology and Genetics of Tumors of the Breast and Female Genital Organs. Lyon, France: IARC Press, 2003: 221-232). A consensus primary end point result was determined for each specimen by majority (two or more of three pathologists agree), or in the event of all pathologists disagreeing the “worst” diagnosis of the three was assigned. Additional findings were recorded using a structured data collection instrument. All raw data was provided to the reviewing pathologists, who undertook an independent analysis that was the basis for their conclusions.

Data set [7] has as its target opiate μ receptor (MOP) (Homo sapiens, UniProt P35372). As to the kind of experiment: Affinity for and inhibition of opiate μ receptor. In kind it is binding.

opiate μ receptor (MOP), sequence (P35372 whole entry): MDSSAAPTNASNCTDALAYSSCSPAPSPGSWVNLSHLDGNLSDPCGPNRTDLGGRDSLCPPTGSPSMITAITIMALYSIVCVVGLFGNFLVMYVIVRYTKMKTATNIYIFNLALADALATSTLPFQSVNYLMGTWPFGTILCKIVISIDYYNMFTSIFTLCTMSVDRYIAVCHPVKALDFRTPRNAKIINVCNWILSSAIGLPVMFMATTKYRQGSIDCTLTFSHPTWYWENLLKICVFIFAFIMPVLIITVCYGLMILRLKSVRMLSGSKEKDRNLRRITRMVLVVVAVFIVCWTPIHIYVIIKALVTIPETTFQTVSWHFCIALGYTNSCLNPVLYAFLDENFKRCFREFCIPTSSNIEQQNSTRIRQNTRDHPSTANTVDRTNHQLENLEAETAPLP

As for `COCC(=O)[C@@]1(OC(C)=O)CC[C@H]2[C@@H]3CCC4=CC(=O)CCC4=C3[C@@H](c3ccc(N(C)C)cc3)C[C@@]21C` [CDB-4124, 21-methoxy-17α-acetoxy-11β-(4 N,N-dimethylaminophenyl)-19-norpregna-4,9-diene-3,20-dione], the “differences in serum corticosterone between treatment groups” value in data set [1] is “No differences”. The “intensity of pain on a bad day (score)” value in data set [2] (month six, 12.5 mg CDB-4124, scale 0-10, p=0.008) stood at 2.0; in data set [2] (month six, 25 mg CDB-4124, scale 0-10, p=0.023), 2.8; in data set [2] (month six, 50 mg CDB-4124, scale 0-10, p=0.004), 0.6; in data set [2] (month three, 12.5 mg CDB-4124, scale 0-10, baseline 6.3, p=0.03), 3.7; in data set [2] (month three, 25 mg CDB-4124, scale 0-10, baseline 6.3, p=0.03), 3.2; in data set [2] (month three, 50 mg CDB-4124, scale 0-10, baseline 6.3, p=0.015), 1.6. Moreover, the “endometrial thickening, group begun at day 15 versus group begun at day 5” value in data set [3] is recorded as “lesser degree of endometrial thickening”. For the same molecule, the “increase in endometrial thickness from baseline (ultrasound)” value in data set [4] (12.5 mg dose, after six months, begun at day 5 of cycle, statistically significant (p 0.016)) was 10.9 mm. In addition, the “change in endometrial thickness from baseline (ultrasound)” value in data set [4] (25 mg dose, after six months, begun at day 5 of cycle) is reported as 9.8 mm; in data set [4] (50 mg dose, after six months, begun at day 5 of cycle) it was 3.9 mm. Besides, the “biomarkers of bone resorption” value in data set [4] (any of the dose arms of CDB-4124, three and six months of treatment) is listed as “no significant changes”. The mean endometrial thickness result in data set [5] is given as “less than 20 mm”. Also, the “subjects with a significant bleeding episode” value in data set [5] is on record as “None”. Besides, in data set [6] (12.5, 25 or 50 mg for six months, 12.5 or 25 mg for three months), the “consensus primary diagnosis of endometrial biopsy (WHO schema)” value is reported as “benign endometrium”. Also, in data set [6] (endometrial biopsies), the “blood vessel wall thickening and latticed capillary patterns” value is “did not induce”. Further, the “most prominent secondary finding within the benign category” value in data set [6] (endometrial biopsies, more prominent at lowest doses) was “cystic dilation of glands”. Further, in data set [6] (every concentration tested (12.5, 25, 50 mg)), the endometrial proliferation entry was “suppressed”. In addition, the “affinity for / inhibition of the opiate μ receptor (MOP)” value in data set [7] is “has affinity for and can inhibit”.
